Earlier results in US7271167B2, “Compounds, compositions, and methods” (Cytokinetics, Inc., priority 2002, dated 2007).

Test system: A549 cells
Settings: data provided by National Cancer Institute, Developmental Therapeutic Program

SMILES | GI50
NC(=O)NO [hydroxyurea] | 500000 nM
O=c1[nH]cc(F)c(=O)[nH]1 [5-fluorouracil] | 1000 nM
CC(=O)O[C@H]1C(=O)[C@@]2(C)[C@H]([C@H](OC(=O)c3ccccc3)[C@]3(O)C[C@H](OC(=O)[C@H](O)[C@@H](NC(=O)c4ccccc4)c4ccccc4)C(C)=C1C3(C)C)[C@]1(OC(C)=O)CO[C@@H]1C[C@@H]2O [paclitaxel] | 4 nM
COc1cccc2c1C(=O)c1c(O)c3c(c(O)c1C2=O)C[C@@](O)(C(=O)CO)C[C@@H]3O[C@H]1C[C@H](N)[C@H](O)[C@H](C)O1 [doxorubicin] | 63 nM
